Measurements taken from patent US10760110B2, “Antibiotic testing and screening system” (priority 2017, dated 2020).
Where two headings read alike, the source gives them in different places.

Columns and labels:
[1] = system: K. pneumoniae NVT1001 strains with QnrB, QnrS or AAC(6′)-Ib-cr plasmids; assay: Etest MIC of quinolones, GyrA/ParC mutations, ΔramR and/or QnrB, QnrS or AAC(6′)-Ib-cr (Table 12); type: cell-based; conditions: Klebsiella pneumoniae
Method: DNA fragments of the resistance genes along with their flanking regions were amplified from clinical plasmids via PCR with specific primer pairs. The resulting PCR fragments were digested and then cloned into the plasmid pACYC177 or pACYC184. The resulting plasmids were then transformed into K. pneumoniae strain NVT1001 via electroporation. The recombinant bacteria were plated onto LB agar plates containing kanamycin (50 mg/L) or chloramphenicol (50 mg/L), and the presence of the cloned gene was confirmed via PCR and DNA sequencing.
(§1) The MICs of antibiotics were determined using the Etest (Biodisk AB, Sweden) according to the manufacturer's instructions. The MICs from the Etest, which fall between standard two-fold dilutions, were rounded up to the next highest two-fold value. The MICs of ceftazidime and cefotaxime against K. pneumoniae NVT1001 harbouring the pACYC177 plasmid with blaOXA-48 were further determined using a broth microdilution test according to the recommendations of the CLSI,^25 and the results were interpreted according to the breakpoints established by the CLSI in 2017.^25 Meanwhile, due to the lack of CLSI breakpoints in 2016 and 2017, the results for cephalothin were interpreted according to the breakpoints established by the CLSI in 2015,^26 and the results for moxifloxacin were interpreted according to the breakpoints established by the EUCAST in 2017.^27

[2] = system: K. pneumoniae NVT1001 gyrA/parC and gyrA/parC/ramR mutants and revertants; assay: Etest MIC of quinolones, gyrA/parC and gyrA/parC/ramR mutants and their revertants (Table 11); type: cell-based; conditions: Klebsiella pneumoniae
Description: The allelic-exchange method was used to restore the wild-type gene in the K. pneumoniae NVT1001 mutants with constructed chromosome-mediated resistance mechanisms, as described by Tsai et al.^19 Briefly, a DNA fragment of the entire wild-type gene sequence along with flanking regions was amplified from K. pneumoniae NVT1001 using PCR with specific primers. The resulting PCR fragment was digested and then cloned into pUT-KB. For homologous recombination, this plasmid was transformed into E. coli S17-1 λpir^23 via electroporation and mobilized into the K. pneumoniae NVT1001 mutant via conjugation. […] After incubation in 20 mL BHI broth for 6 hours at 37° C. in the absence of kanamycin, the fully grown cultures were spread onto LB agar plates supplemented with 10% sucrose. After the double crossover occurred, the sucrose-resistant and kanamycin-susceptible colonies were selected, and the restoration of the wild-type gene was confirmed via DNA sequencing.
as §1

[3] = AAC(6′)-Ib-cr on pACYC177, S83I mutant
[4] = AAC(6′)-Ib-cr on pACYC177, S83I/D87N/S80I mutant
[5] = AAC(6′)-Ib-cr on pACYC177, S83I/S80I mutant
[6] = AAC(6′)-Ib-cr on pACYC177, WT (NVT1001), read-out: MIC
[7] = AAC(6′)-Ib-cr on pACYC177, ΔramR mutant
[8] = AAC(6′)-Ib-cr on pACYC177, ΔramR/S83I mutant
[9] = AAC(6′)-Ib-cr on pACYC177, ΔramR/S83I/D87N/S80I mutant
[10] = AAC(6′)-Ib-cr on pACYC177, ΔramR/S83I/S80I mutant
[11] = QnrB on pACYC177, S83I/D87N/S80I mutant
[12] = QnrB on pACYC177, S83I/S80I mutant
[13] = QnrB on pACYC177, WT (NVT1001), read-out: MIC
[14] = QnrB on pACYC177, ΔramR/S83I mutant
[15] = QnrB on pACYC177, ΔramR/S83I/D87N/S80I mutant
[16] = QnrB on pACYC177, ΔramR/S83I/S80I mutant
[17] = QnrS on pACYC177, S83I/D87N/S80I mutant
[18] = QnrS on pACYC177, S83I/S80I mutant
[19] = QnrS on pACYC177, WT (NVT1001), read-out: MIC
[20] = QnrS on pACYC177, ΔramR/S83I mutant
[21] = QnrS on pACYC177, ΔramR/S83I/D87N/S80I mutant
[22] = QnrS on pACYC177, ΔramR/S83I/S80I mutant
[23] = no supplemental plasmid, S83I mutant
[24] = no supplemental plasmid, S83I/D87N/S80I mutant
[25] = no supplemental plasmid, S83I/S80I mutant
[26] = no supplemental plasmid, WT (NVT1001), read-out: MIC
[27] = no supplemental plasmid, ΔramR mutant
[28] = no supplemental plasmid, ΔramR/S83I mutant
[29] = no supplemental plasmid, ΔramR/S83I/D87N/S80I mutant
[30] = no supplemental plasmid, ΔramR/S83I/S80I mutant
[31] = S83F/D87N/S80I::F83S/N87D/I80S revertant, read-out: MIC
[32] = S83F/D87N/S80I::I80S revertant, read-out: MIC
[33] = S83F/D87N/S80I::N87D revertant, read-out: MIC
[34] = S83F/D87N/S80I::N87D/I80S revertant, read-out: MIC
[35] = S83I/D87N/S80I::I80S revertant, read-out: MIC
[36] = S83I/D87N/S80I::I83S/N87D/I80S revertant, read-out: MIC
[37] = S83I/D87N/S80I::N87D revertant, read-out: MIC
[38] = S83I/D87N/S80I::N87D/I80S revertant, read-out: MIC
[39] = S83L/D87N/S80I::I80S revertant, read-out: MIC
[40] = S83L/D87N/S80I::L83S/N87D/I80S revertant, read-out: MIC
[41] = S83L/D87N/S80I::N87D revertant, read-out: MIC
[42] = S83L/D87N/S80I::N87D/I80S revertant, read-out: MIC
[43] = S83Y/D87N/S80I::I80S revertant, read-out: MIC
[44] = S83Y/D87N/S80I::N87D revertant, read-out: MIC
[45] = S83Y/D87N/S80I::N87D/I80S revertant, read-out: MIC
[46] = S83Y/D87N/S80I::Y83S/N87D/I80S revertant, read-out: MIC
[47] = ΔramR/S83I/D87N/S80I:: ramR/I83S revertant
[48] = ΔramR/S83I/D87N/S80I:: ramR/I83S/I80S revertant
[49] = ΔramR/S83I/D87N/S80I:: ramR/I83S/N87D revertant
[50] = ΔramR/S83I/D87N/S80I::I83S/N87D/I80S revertant
[51] = ΔramR/S83I/D87N/S80I::N87D revertant
[52] = ΔramR/S83I/D87N/S80I::N87D/I80S revertant
[53] = ΔramR/S83I/D87N/S80I::ramR/I83S/N87D/I80S

## COc1c(N2C[C@@H]3CCCN[C@@H]3C2)c(F)cc2c(=O)c(C(=O)O)cn(C3CC3)c12 [Moxifloxacin, moxifloxacin]
[1]; [3]
  MIC: 1 µg/mL
[1]; [4]
  MIC: > 32 µg/mL
[1]; [5]
  MIC: 8 µg/mL
[1]; [6]
  MIC: 0.125 µg/mL
[1]; [7]
  MIC: 1 µg/mL
[1]; [8]
  MIC: 16 µg/mL
[1]; [9]
  MIC: > 32 µg/mL
[1]; [10]
  MIC: > 32 µg/mL
[1]; QnrB on pACYC177, S83I mutant
  MIC: 8 µg/mL
[1]; [11]
  MIC: > 32 µg/mL
[1]; [12]
  MIC: > 32 µg/mL
[1]; [13]
  MIC: 2 µg/mL
[1]; QnrB on pACYC177, ΔramR mutant
  MIC: > 32 µg/mL
[1]; [14]
  MIC: > 32 µg/mL
[1]; [15]
  MIC: > 32 µg/mL
[1]; [16]
  MIC: > 32 µg/mL
[1]; QnrS on pACYC177, S83I mutant
  MIC: 8 µg/mL
[1]; [17]
  MIC: > 32 µg/mL
[1]; [18]
  MIC: > 32 µg/mL
[1]; [19]
  MIC: 1 µg/mL
[1]; QnrS on pACYC177, ΔramR mutant
  MIC: > 32 µg/mL
[1]; [20]
  MIC: > 32 µg/mL
[1]; [21]
  MIC: > 32 µg/mL
[1]; [22]
  MIC: > 32 µg/mL
[1]; [23]
  MIC: 1 µg/mL
[1]; [24]
  MIC: > 32 µg/mL
[1]; [25]
  MIC: 8 µg/mL
[1]; [26]
  MIC: 0.125 µg/mL
[1]; [27]
  MIC: 1 µg/mL
[1]; [28]
  MIC: 8 µg/mL
[1]; [29]
  MIC: > 32 µg/mL
[1]; [30]
  MIC: > 32 µg/mL
[2]; S83F/D87N/S80I mutant
  MIC: 32 µg/mL
[2]; [31]
  MIC: 0.125 µg/mL
[2]; [32]
  MIC: 1 µg/mL
[2]; [33]
  MIC: 0.5 µg/mL
[2]; [34]
  MIC: 0.5 µg/mL
[2]; S83I/D87N/S80I mutant
  MIC: > 32 µg/mL
[2]; [35]
  MIC: 1 µg/mL
[2]; [36]
  MIC: 0.125 µg/mL
[2]; [37]
  MIC: 4 µg/mL
[2]; [38]
  MIC: 1 µg/mL
[2]; S83L/D87N/S80I mutant
  MIC: 32 µg/mL
[2]; [39]
  MIC: 1 µg/mL
[2]; [40]
  MIC: 0.125 µg/mL
[2]; [41]
  MIC: 1 µg/mL
[2]; [42]
  MIC: 0.5 µg/mL
[2]; S83Y/D87N/S80I mutant
  MIC: 32 µg/mL
[2]; [43]
  MIC: 0.5 µg/mL
[2]; [44]
  MIC: 0.5 µg/mL
[2]; [45]
  MIC: 0.5 µg/mL
[2]; [46]
  MIC: 0.125 µg/mL
[2]; ΔramR/S83I/D87N/S80I mutant
  MIC: > 32 µg/mL
[2]; [47]
  MIC: 1 µg/mL
[2]; [48]
  MIC: 0.5 µg/mL
[2]; [49]
  MIC: 0.25 µg/mL
[2]; [50]
  MIC: 1 µg/mL
[2]; [51]
  MIC: > 32 µg/mL
[2]; [52]
  MIC: 8 µg/mL
[2]; [53]
  MIC: 0.125 µg/mL

## CC1COc2c(N3CCN(C)CC3)c(F)cc3c(=O)c(C(=O)O)cn1c23 (stereo not drawn) [Ofloxacin, ofloxacin]
[1]; [3]
  MIC: 4 µg/mL
[1]; [4]
  MIC: 32 µg/mL
[1]; [5]
  MIC: 8 µg/mL
[1]; [6]
  MIC: 0.25 µg/mL
[1]; [7]
  MIC: 2 µg/mL
[1]; [8]
  MIC: > 32 µg/mL
[1]; [9]
  MIC: > 32 µg/mL
[1]; [10]
  MIC: > 32 µg/mL
[1]; QnrB on pACYC177, S83I mutant
  MIC: 8 µg/mL
[1]; [11]
  MIC: > 32 µg/mL
[1]; [12]
  MIC: > 32 µg/mL
[1]; [13]
  MIC: 4 µg/mL
[1]; QnrB on pACYC177, ΔramR mutant
  MIC: 32 µg/mL
[1]; [14]
  MIC: > 32 µg/mL
[1]; [15]
  MIC: > 32 µg/mL
[1]; [16]
  MIC: > 32 µg/mL
[1]; QnrS on pACYC177, S83I mutant
  MIC: 8 µg/mL
[1]; [17]
  MIC: > 32 µg/mL
[1]; [18]
  MIC: > 32 µg/mL
[1]; [19]
  MIC: 4 µg/mL
[1]; QnrS on pACYC177, ΔramR mutant
  MIC: 16 µg/mL
[1]; [20]
  MIC: > 32 µg/mL
[1]; [21]
  MIC: > 32 µg/mL
[1]; [22]
  MIC: > 32 µg/mL
[1]; [23]
  MIC: 2 µg/mL
[1]; [24]
  MIC: 32 µg/mL
[1]; [25]
  MIC: 4 µg/mL
[1]; [26]
  MIC: 0.25 µg/mL
[1]; [27]
  MIC: 2 µg/mL
[1]; [28]
  MIC: > 32 µg/mL
[1]; [29]
  MIC: > 32 µg/mL
[1]; [30]
  MIC: > 32 µg/mL
[2]; S83F/D87N/S80I mutant
  MIC: 16 µg/mL
[2]; [31]
  MIC: 0.25 µg/mL
[2]; [32]
  MIC: 2 µg/mL
[2]; [33]
  MIC: 4 µg/mL
[2]; [34]
  MIC: 2 µg/mL
[2]; S83I/D87N/S80I mutant
  MIC: 32 µg/mL
[2]; [35]
  MIC: 2 µg/mL
[2]; [36]
  MIC: 0.25 µg/mL
[2]; [37]
  MIC: 8 µg/mL
[2]; [38]
  MIC: 2 µg/mL
[2]; S83L/D87N/S80I mutant
  MIC: 32 µg/mL
[2]; [39]
  MIC: 2 µg/mL
[2]; [40]
  MIC: 0.25 µg/mL
[2]; [41]
  MIC: 4 µg/mL
[2]; [42]
  MIC: 2 µg/mL
[2]; S83Y/D87N/S80I mutant
  MIC: 16 µg/mL
[2]; [43]
  MIC: 2 µg/mL
[2]; [44]
  MIC: 4 µg/mL
[2]; [45]
  MIC: 2 µg/mL
[2]; [46]
  MIC: 0.25 µg/mL
[2]; ΔramR/S83I/D87N/S80I mutant
  MIC: > 32 µg/mL
[2]; [47]
  MIC: 1 µg/mL
[2]; [48]
  MIC: 1 µg/mL
[2]; [49]
  MIC: 0.25 µg/mL
[2]; [50]
  MIC: 2 µg/mL
[2]; [51]
  MIC: > 32 µg/mL
[2]; [52]
  MIC: > 32 µg/mL
[2]; [53]
  MIC: 0.25 µg/mL
